In patent US20220323406A1, “METHODS AND COMPOSITIONS FOR DIFFERENTIATING STEM CELLS” (Massachusetts Institute of Technology, priority 2019, published 2022):

Legend:
[1] = tested on: ENR+CD organoids (ISC to Paneth cell differentiation); test: Primary screen: basal (non-stimulated) lysozyme secretion LYZ.NS, 2.5-D 384-well ENR+CD organoid differentiation; format: cell-based, mouse; conditions: primary screen; for Z.LYZ.NS: standard z score
From the text: (§1) High-throughput screening.

[2] = tested on: ENR+CD organoids (ISC to Paneth cell differentiation); test: Primary screen: CCh-stimulated lysozyme secretion LYZ.S, 2.5-D 384-well ENR+CD organoid differentiation; format: cell-based, mouse; conditions: primary screen
From the text: as §1

[3] = tested on: ENR+CD organoids; test: Primary screen: ATP (CellTiter-Glo 3D, CTG) cell number/viability, 2.5-D 384-well ENR+CD organoids; conditions: primary screen; for Z.CTG: standard z score;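 for all read-outs here: compounds given at plating and again on day 3 over a 6-day differentiation from ENR+CV stem-cell-enriched precursors, ATP measured on day 6, plate median as control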
[4] = dose 0.08 uM, FC relative to plate median
[5] = dose 0.40 uM, FC relative to plate median
[6] = dose 2.00 uM, FC relative to plate median
[7] = dose 10.00 uM, FC relative to plate median
[8] = 1st dose row of the treatment (0.08 uM by row order; dose not reprinted)
[9] = 2nd dose row of the treatment (0.40 uM by row order; dose not reprinted)
[10] = 3rd dose row of the treatment (2.00 uM by row order; dose not reprinted)
[11] = 4th dose row of the treatment (10.00 uM by row order; dose not reprinted)
[12] = dose 0.08 uM, FC vs plate median
[13] = dose 0.40 uM, FC vs plate median
[14] = dose 2.00 uM, FC vs plate median
[15] = dose 10.00 uM, FC vs plate median

With `Cl.Cl.O=S(=O)(NCCNC/C=C/c1ccc(Br)cc1)c1cccc2cnccc12` [H 89 2HCl] the “Dose.FC.LYZ.NS (log2 fold change)” value ([1]; dose 0.08 uM) was 0.140, the “Z.LYZ.NS (standard z score)” value ([1]; dose 0.08 uM) was 1.223 and the “Dose.FC.LYZ.NS (log2 fold change)” value ([1]; dose 0.40 uM) was 0.080. The “Z.LYZ.NS (standard z score)” value ([1]; dose 0.40 uM) was 0.695, the “Dose.FC.LYZ.NS (log2 fold change)” value ([1]; dose 2.00 uM) was 0.086 and the “Z.LYZ.NS (standard z score)” value ([1]; dose 2.00 uM) was 0.747. The “Dose.FC.LYZ.NS (log2 fold change)” value ([1]; dose 10.00 uM) was 0.132, the “Z.LYZ.NS (standard z score)” value ([1]; dose 10.00 uM) was 1.151 and the “Dose.FC.LYZ.S (log2 fold change)” value ([2]; dose 0.08 uM) was 0.118. The “Dose.FC.LYZ.S (log2 fold change)” value ([2]; dose 0.40 uM) was 0.148, the “Dose.FC.LYZ.S (log2 fold change)” value ([2]; dose 2.00 uM) was 0.087 and the “Dose.FC.LYZ.S (log2 fold change)” value ([2]; dose 10.00 uM) was 0.000. For the same molecule, the “Dose.FC.CTG (log2 fold change)” value ([3]; dose 0.08 uM) was 0.350, the “Z.CTG (standard z score)” value ([3]; dose 0.08 uM) was 0.836 and the “Dose.FC.CTG (log2 fold change)” value ([3]; dose 0.40 uM) was 0.398. For the same molecule, the “Z.CTG (standard z score)” value ([3]; dose 0.40 uM) was 0.950, the “Dose.FC.CTG (log2 fold change)” value ([3]; dose 2.00 uM) was 0.421 and the “Z.CTG (standard z score)” value ([3]; dose 2.00 uM) was 1.005. The “Dose.FC.CTG (log2 fold change)” value ([3]; dose 10.00 uM) was 0.385 and the “Z.CTG (standard z score)” value ([3]; dose 10.00 uM) was 0.919.
In the case of VU 0364770, the Dose.FC.LYZ.NS ([1]; dose 0.08 uM) is reported as 0.155 log2 fold change, the “Z.LYZ.NS (standard z score)” value ([1]; dose 0.08 uM) is reported as 1.350 and the Dose.FC.LYZ.NS ([1]; dose 0.40 uM) is reported as 0.085 log2 fold change. For the same molecule, the “Z.LYZ.NS (standard z score)” value ([1]; dose 0.40 uM) was 0.736, the Dose.FC.LYZ.NS ([1]; dose 2.00 uM) was 0.117 log2 fold change and the “Z.LYZ.NS (standard z score)” value ([1]; dose 2.00 uM) was 1.020. The Dose.FC.LYZ.NS ([1]; dose 10.00 uM) was 0.102 log2 fold change, the “Z.LYZ.NS (standard z score)” value ([1]; dose 10.00 uM) was 0.884 and the Dose.FC.LYZ.S ([2]; dose 0.08 uM) was 0.082 log2 fold change. It also gave a Dose.FC.LYZ.S ([2]; dose 0.40 uM) of 0.125 log2 fold change, a Dose.FC.LYZ.S ([2]; dose 2.00 uM) of 0.139 log2 fold change and a Dose.FC.LYZ.S ([2]; dose 10.00 uM) of 0.066 log2 fold change. For the same molecule, the Dose.FC.CTG ([3]; dose 0.08 uM) was 0.013 log2 fold change, the “Z.CTG (standard z score)” value ([3]; dose 0.08 uM) was 0.031 and the Dose.FC.CTG ([3]; dose 0.40 uM) was 0.085 log2 fold change. The “Z.CTG (standard z score)” value ([3]; dose 0.40 uM) was 0.204, the Dose.FC.CTG ([3]; dose 2.00 uM) was 0.083 log2 fold change and the “Z.CTG (standard z score)” value ([3]; dose 2.00 uM) was 0.199. The Dose.FC.CTG ([3]; dose 10.00 uM) was −0.103 log2 fold change and the “Z.CTG (standard z score)” value ([3]; dose 10.00 uM) was −0.246.
`Nc1ccc(C(=O)[O-])c(O)c1.[Na+]` [Sodium 4-Aminosalicylate] was tested, and the Dose.FC.LYZ.NS [1, 4] was 0.080 log2 fold change, the Z.LYZ.NS ([1]; dose 0.08 uM) was 0.695 and the Dose.FC.LYZ.NS [1, 5] was 0.041 log2 fold change. It also gave a Z.LYZ.NS ([1]; dose 0.40 uM) of 0.354, a Dose.FC.LYZ.NS [1, 6] of 0.156 log2 fold change and a Z.LYZ.NS ([1]; dose 2.00 uM) of 1.354. For the same molecule, the Dose.FC.LYZ.NS [1, 7] was 0.091 log2 fold change, the Z.LYZ.NS ([1]; dose 10.00 uM) was 0.796 and the Dose.FC.LYZ.S [2, 4] was 0.162 log2 fold change. The Dose.FC.LYZ.S [2, 5] was 0.050 log2 fold change, the Dose.FC.LYZ.S [2, 6] was 0.099 log2 fold change and the Dose.FC.LYZ.S [2, 7] was 0.143 log2 fold change. For the same molecule, the Dose.FC.CTG [3, 4] was 0.119 log2 fold change, the Dose.FC.CTG [3, 5] was 0.204 log2 fold change and the Dose.FC.CTG [3, 6] was 0.038 log2 fold change. The Dose.FC.CTG [3, 7] was 0.247 log2 fold change.
`C=C1C(=O)O[C@H]2[C@H]1CC/C(C)=C/CC[C@@]1(C)O[C@@H]21` [(−)-Parthenolide] was tested, and the “SSMD.LYZ.NS_Rep (strictly standardized mean difference)” value [1, 8] was 0.601, the “SSMD.LYZ.NS_Rep (strictly standardized mean difference)” value [1, 9] was 0.480 and the “SSMD.LYZ.NS_Rep (strictly standardized mean difference)” value [1, 10] was 0.920. For the same molecule, the “SSMD.LYZ.NS_Rep (strictly standardized mean difference)” value [1, 11] was 0.998, the Dose.FC.LYZ.NS ([1]; dose 0.08 uM) was 0.058 log2 fold change and the “Z.LYZ.NS (standard z score)” value ([1]; dose 0.08 uM) was 0.506. The Dose.FC.LYZ.NS ([1]; dose 0.40 uM) was 0.067 log2 fold change, the “Z.LYZ.NS (standard z score)” value ([1]; dose 0.40 uM) was 0.583 and the Dose.FC.LYZ.NS ([1]; dose 2.00 uM) was 0.089 log2 fold change. For the same molecule, the “Z.LYZ.NS (standard z score)” value ([1]; dose 2.00 uM) was 0.776, the Dose.FC.LYZ.NS ([1]; dose 10.00 uM) was 0.133 log2 fold change and the “Z.LYZ.NS (standard z score)” value ([1]; dose 10.00 uM) was 1.159. For the same molecule, the “SSMD.LYZ.S_Rep (strictly standardized mean difference)” value [2, 8] was 0.679, the “Z.LYZ.S (standard z score)” value [2, 8] was 0.799 and the “SSMD.LYZ.S_Rep (strictly standardized mean difference)” value [2, 9] was 0.763. For the same molecule, the “Z.LYZ.S (standard z score)” value [2, 9] was 1.067, the “SSMD.LYZ.S_Rep (strictly standardized mean difference)” value [2, 10] was 0.506 and the “Z.LYZ.S (standard z score)” value [2, 10] was 0.441. The “SSMD.LYZ.S_Rep (strictly standardized mean difference)” value [2, 11] was 0.345, the “Z.LYZ.S (standard z score)” value [2, 11] was 0.530 and the Dose.FC.LYZ.S ([2]; dose 0.08 uM) was 0.124 log2 fold change. For the same molecule, the Dose.FC.LYZ.S ([2]; dose 0.40 uM) was 0.165 log2 fold change, the Dose.FC.LYZ.S ([2]; dose 2.00 uM) was 0.068 log2 fold change and the Dose.FC.LYZ.S ([2]; dose 10.00 uM) was 0.082 log2 fold change. The “SSMD.CTG.Rep (strictly standardized mean difference)” value [3, 8] was 0.498, the “SSMD.CTG.Rep (strictly standardized mean difference)” value [3, 9] was 0.736 and the “SSMD.CTG.Rep (strictly standardized mean difference)” value [3, 10] was 0.482. For the same molecule, the “SSMD.CTG.Rep (strictly standardized mean difference)” value [3, 11] was 0.257, the Dose.FC.CTG ([3]; dose 0.08 uM) was 0.135 log2 fold change and the “Z.CTG (standard z score)” value ([3]; dose 0.08 uM) was 0.322. The Dose.FC.CTG ([3]; dose 0.40 uM) was 0.228 log2 fold change, the “Z.CTG (standard z score)” value ([3]; dose 0.40 uM) was 0.544 and the Dose.FC.CTG ([3]; dose 2.00 uM) was 0.157 log2 fold change. The “Z.CTG (standard z score)” value ([3]; dose 2.00 uM) was 0.376, the Dose.FC.CTG ([3]; dose 10.00 uM) was 0.157 log2 fold change and the “Z.CTG (standard z score)” value ([3]; dose 10.00 uM) was 0.374.
Molecule `CCC(CC)(NC(=O)C(C)C)C(=O)N[C@@H](CCCN=C(N)N)C(=O)NC1(C(=O)NC(c2ccc(F)cc2)c2ccc(F)cc2)CCCC1` [MM-102] has a Z.LYZ.NS ([1]; dose 0.08 uM) of −0.220, a Z.LYZ.NS ([1]; dose 0.40 uM) of −0.090 and a Z.LYZ.NS ([1]; dose 2.00 uM) of 0.230. The Z.LYZ.NS ([1]; dose 10.00 uM) was −1.424, the Dose.FC.LYZ.NS [1, 12] was −0.025 log2 fold change and the Dose.FC.LYZ.NS [1, 13] was −0.010 log2 fold change. The Dose.FC.LYZ.NS [1, 14] was 0.026 log2 fold change, the Dose.FC.LYZ.NS [1, 15] was −0.164 log2 fold change and the Dose.FC.LYZ.S [2, 12] was −0.027 log2 fold change. It also gave a Dose.FC.LYZ.S [2, 13] of −0.001 log2 fold change, a Dose.FC.LYZ.S [2, 14] of −0.035 log2 fold change and a Dose.FC.LYZ.S [2, 15] of −0.194 log2 fold change. It also gave a Z.CTG ([3]; dose 0.08 uM) of −0.489, a Z.CTG ([3]; dose 0.40 uM) of −0.315 and a Z.CTG ([3]; dose 2.00 uM) of −0.557. For the same molecule, the Z.CTG ([3]; dose 10.00 uM) was −0.964, the Dose.FC.CTG [3, 12] was −0.205 log2 fold change and the Dose.FC.CTG [3, 13] was −0.132 log2 fold change. It also gave a Dose.FC.CTG [3, 14] of −0.233 log2 fold change and a Dose.FC.CTG [3, 15] of −0.403 log2 fold change.
